{"source": "patent US20220249418A1", "about": "“COMPOSITIONS COMPRISING AMINO ACIDS FOR USE IN THE TREATMENT OF MITOCHONDRIAL DYSFUNCTION-RELATED DISEASES” (PROFESSIONAL DIETETICS INTERNATIONAL S.R.L., priority 2017, published 2022)", "system": "HL-1 cardiomyocytes", "assay": "oxygen consumption (Clark-type oxygen electrode)", "assay_type": "cell-based, Mus musculus", "settings": "HL-1 cells, 48 hr treatment, normalized to protein content; FIG. 5", "method": "HL-1 cardiomyocytes (a gift from W. C. Claycomb, New Orleans, School of Medicine) were plated in fibronectin/gelatin-coated flasks, grown to 70%-80% confluence in Claycomb medium (JRH Biosciences) supplemented with 100 μM norepinephrine (from a 10 mM norepinephrine [Sigma-Aldrich] stock solution dissolved in 30 mM L-ascorbic acid [Sigma-Aldrich]), 2 mM L-glutamine, 100 U/ml penicillin, 100 μg/ml streptomycin and 10% FBS (JRH Biosciences) as disclosed in Claycomb et al., 1998.\nAt the end of these periods, mRNA and DNA were extracted from the cells or the cells were used to evaluate the oxygen consumption. Control cells were treated with Claycomb medium only.\nAn amount of 1 ml of HL-1 cardiomyocytes treated with the compositions shown in Table 1 was re-suspended in Hank's balanced salt solution (Sigma) and spun down to pellet cells. A number of HL-1 cells was also supplemented with a nitic oxide (NO) donor, specifically with diethylenetriamine-NO also called (DETA-NO; Sigma-Aldrich, Milan, Italy), as positive control. […]\nSamples were analyzed at 37° C. in a gas-tight vessel equipped with a Clark-type oxygen electrode (Rank Brothers Ltd.) connected to a chart recorder. […]\nOxygen consumption was assessed with continuous mixing for about ten minutes. […] Protein content was determined by using the bicinchoninic acid protein (BCA) assay."}
{"smiles": "NCCN(CCN)/[N+]([O-])=N/O", "note": "[DETA-NO, diethylenetriamine-NO]", "values": [{"measurement": "oxygen consumption", "value": "a rise of oxygen consumption was observed"}]}
